From patent US9351974B2, “Substituted pteridinones for the treatment of cancer” (OSI Pharmaceuticals, LLC, priority 2011, dated 2016)

What follows are compounds tested against T1, His-tagged full-length RSK2 (RPS6KA3) (Homo sapiens, UniProt P51812) (assay: RSK2 Omnia Assay for compound IC50 determination). Details: ATP 15 μM, n=2, read-out: Mean RSK2 Biochem IC50.
T1 construct: His-tagged full-length RSK2 (RPS6KA3, Invitrogen PV3323); His; purchased Invitrogen PV3323
Type: biochemical
Outline: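 Continuous fluorescence assay (ex 360/em 485 nm) of SOX-peptide (Omnia ST Peptide 6, 5 μM) phosphorylation with ATP 15 μM (Km 16.3 μM). Enzyme was […], in pH 7.5 HEPES/MgCl2 buffer with 1% DMSO. IC50 came from 11-point threefold dilutions ([…]) by four-parameter fit of initial slopes, in duplicate; Ki by Cheng-Prusoff assuming competitive inhibition.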

T1 sequence (P51812 whole entry): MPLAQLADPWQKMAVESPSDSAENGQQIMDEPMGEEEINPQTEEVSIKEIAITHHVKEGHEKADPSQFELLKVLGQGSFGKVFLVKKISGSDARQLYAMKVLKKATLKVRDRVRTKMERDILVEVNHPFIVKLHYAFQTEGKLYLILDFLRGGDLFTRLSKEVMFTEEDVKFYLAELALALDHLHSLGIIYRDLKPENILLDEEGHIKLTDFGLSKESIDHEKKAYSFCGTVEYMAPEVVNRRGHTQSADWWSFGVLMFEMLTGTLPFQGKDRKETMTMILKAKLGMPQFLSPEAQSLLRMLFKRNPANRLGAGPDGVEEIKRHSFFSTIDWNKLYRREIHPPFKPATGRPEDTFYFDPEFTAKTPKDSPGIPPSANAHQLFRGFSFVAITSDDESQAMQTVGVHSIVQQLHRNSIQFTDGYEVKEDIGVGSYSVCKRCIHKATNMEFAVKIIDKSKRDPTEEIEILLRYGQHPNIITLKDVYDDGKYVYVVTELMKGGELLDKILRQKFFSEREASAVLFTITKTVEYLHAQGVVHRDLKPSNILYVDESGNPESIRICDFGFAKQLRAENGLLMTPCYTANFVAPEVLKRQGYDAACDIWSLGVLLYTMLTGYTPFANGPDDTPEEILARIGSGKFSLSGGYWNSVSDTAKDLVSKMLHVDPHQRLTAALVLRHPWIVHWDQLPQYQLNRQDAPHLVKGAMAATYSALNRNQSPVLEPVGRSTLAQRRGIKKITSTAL

| Structure (SMILES) | IC50 |
| --- | --- |
| COC(=O)c1cccc(Nc2ncc3c(n2)N(CCC(C)C)C(C)C(=O)N3c2ccccc2)c1 (centres unmarked) [Example 10, methyl 3-{[7-methyl-8-(3-methylbutyl)-6-oxo-5-phenyl-5,6,7,8-tetrahydropteridin-2-yl]amino}benzoate] | > 1000 nM |
| CNS(=O)(=O)Cc1ccc(Nc2ncc3c(n2)N(CCC(C)C)C(C)C(=O)N3c2ccccc2)cc1 (centres unmarked) [Example 7, N-methyl-1-(4-{[7-methyl-8-(3-methylbutyl)-6-oxo-5-phenyl-5,6,7,8-tetrahydropteridin-2-yl]amino}phenyl)methanesulfonamide] | > 1000 nM |
| CC(C)CCN1c2nc(N[C@H]3CC[C@@H](O)CC3)ncc2N(c2ccccc2)C(=O)C1C (relative stereo) [Example 12, 2-[(cis-4-hydroxycyclohexyl)amino]-7-methyl-8-(3-methylbutyl)-5-phenyl-7,8-dihydropteridin-6(5H)-one] | > 1000 nM |
| C[C@@H]1C(=O)N(c2cccc(C#N)c2)c2cnc(Nc3ccc4[nH]c(=O)[nH]c4c3)nc2N1C1CCC(F)(F)CC1 [compound 265, 3-[(7R)-8-(4,4-difluorocyclohexyl)-7-methyl-6-oxo-2-[(2-oxo-2,3-dihydro-1H-benzimidazol-5-yl)amino]-7,8-dihydropteridin-5(6H)-yl]benzonitrile] | > 1000 nM |
| C[C@@H]1C(=O)N(c2cccc(C#N)c2)c2cnc(Nc3cc4cn[nH]c4cn3)nc2N1C1CCC(F)(F)CC1 [compound 268, 3-[(7R)-8-(4,4-difluorocyclohexyl)-7-methyl-6-oxo-2-(1H-pyrazolo[3,4-c]pyridin-5-ylamino)-7,8-dihydropteridin-5(6H)-yl]benzonitrile] | 100 to 1000 nM |
| C[C@@H]1C(=O)N(c2cccc(C#N)c2)c2cnc(Nc3ccc4[nH]c(=O)sc4c3)nc2N1C1CCC(F)(F)CC1 [compound 267, 3-[(7R)-8-(4,4-difluorocyclohexyl)-7-methyl-6-oxo-2-[(2-oxo-2,3-dihydro-1,3-benzothiazol-6-yl)amino]-7,8-dihydropteridin-5(6H)-yl]benzonitrile] | ≤ 100 nM |
| CC(C)CCN1c2nc(Nc3ccc(CC(=O)N(C)C)cc3)ncc2N(c2ccccc2)C(=O)C1C (centres unmarked) [Example 6, N,N-dimethyl-2-(4-{[7-methyl-8-(3-methylbutyl)-6-oxo-5-phenyl-5,6,7,8-tetrahydropteridin-2-yl]amino}phenyl)acetamide] | 100 to 1000 nM |
| COc1ccc(N2C(=O)[C@@H](C)N([C@H]3CC[C@@H](C(F)(F)F)CC3)c3nc(Nc4cc(F)c5[nH]ncc5c4)ncc32)cc1OC [compound 257, (7R)-5-(3,4-dimethoxyphenyl)-2-[(7-fluoro-1H-indazol-5-yl)amino]-7-methyl-8-[cis-4-(trifluoromethyl)cyclohexyl]-7,8-dihydropteridin-6(5H)-one] | ≤ 100 nM |
| CC(C)CCN1c2nc(Nc3ccc(C(=O)O)cc3)ncc2N(c2ccccc2)C(=O)C1C (centres unmarked) [Example 14, 4-{[7-methyl-8-(3-methylbutyl)-6-oxo-5-phenyl-5,6,7,8-tetrahydropteridin-2-yl]amino}benzoic acid] | ≤ 100 nM |
| COc1ccc(N2C(=O)[C@@H](C)N([C@H]3CC[C@H](C(F)(F)F)CC3)c3nc(Nc4cc(F)c5[nH]ncc5c4)ncc32)cc1OC [compound 258, (7R)-5-(3,4-dimethoxyphenyl)-2-[(7-fluoro-1H-indazol-5-yl)amino]-7-methyl-8-[trans-4-(trifluoromethyl)cyclohexyl]-7,8-dihydropteridin-6(5H)-one] | ≤ 100 nM |
| C[C@@H]1C(=O)N(c2ccc(N(C)C)cc2)c2cnc(Nc3ccc4[nH]ncc4c3)nc2N1C1CCCCC1 [Example 41, (7R)-8-cyclohexyl-5-[4-(dimethylamino)phenyl]-2-(1H-indazol-5-ylamino)-7-methyl-7,8-dihydropteridin-6(5H)-one] | ≤ 100 nM |
| CC(C)Oc1ccc(N2C(=O)[C@@H](C)N(C3CCC(F)(F)CC3)c3nc(Nc4ccc5[nH]c(=O)oc5c4)ncc32)cc1C#N [compound 285, 5-[(7R)-8-(4,4-difluorocyclohexyl)-7-methyl-6-oxo-2-[(2-oxo-2,3-dihydro-1,3-benzoxazol-6-yl)amino]-7,8-dihydropteridin-5(6H)-yl]-2-(propan-2-yloxy)benzonitrile] | ≤ 100 nM |
| COc1ccc(N2C(=O)[C@@H](C)N(C3CCCCC3)c3nc(NCc4ccncc4)ncc32)cc1OC [compound 162] | > 1000 nM |
| C[C@@H]1C(=O)N(c2cccc(C#N)c2)c2cnc(Nc3ccc4[nH]ncc4c3)nc2N1CC1CCOC1 (stereo partly drawn) [Example 82, 3-[(7R)-2-(1H-indazol-5-ylamino)-7-methyl-6-oxo-8-(tetrahydrofuran-3-ylmethyl)-7,8-dihydropteridin-5(6H)-yl]benzonitrile] | ≤ 100 nM |
| CCOc1ccc(N2C(=O)[C@@H](C)N(CCC(C)C)c3nc(Nc4cc(F)c5[nH]ncc5c4)ncc32)cc1C#N [Example 92, 2-ethoxy-5-[(7R)-2-[(7-fluoro-1H-indazol-5-yl)amino]-7-methyl-8-(3-methylbutyl)-6-oxo-7,8-dihydropteridin-5(6H)-yl]benzonitrile] | ≤ 100 nM |

Results, then the compound that gave them:

| IC50 | Structure (SMILES) |
| --- | --- |
| ≤ 100 nM | C[C@@H]1C(=O)N(c2cccc(C#N)c2)c2cnc(Nc3cc(F)c4[nH]ncc4c3)nc2N1C1CCC2(CC1)CC2 [Example 297, 3-[(7R)-2-[(7-fluoro-1H-indazol-5-yl)amino]-7-methyl-6-oxo-8-(spiro[2.5]oct-6-yl)-7,8-dihydropteridin-5(6H)-yl]benzonitrile] |
| ≤ 100 nM | COc1ccc(N2C(=O)[C@@H](C)N(C3CCC(=O)CC3)c3nc(Nc4cc(F)c5[nH]ncc5c4)ncc32)cc1OC [compound 308, (7R)-5-(3,4-dimethoxyphenyl)-2-[(7-fluoro-1H-indazol-5-yl)amino]-7-methyl-8-(4-oxocyclohexyl)-7,8-dihydropteridin-6(5H)-one] |
| ≤ 100 nM | C[C@@H]1C(=O)N(c2cccc(F)c2)c2cnc(Nc3cc(F)c4[nH]ncc4c3)nc2N1C1CCOCC1 [compound 189, (7R)-2-[(7-fluoro-1H-indazol-5-yl)amino]-5-(3-fluorophenyl)-7-methyl-8-(tetrahydro-2H-pyran-4-yl)-7,8-dihydropteridin-6(5H)-one] |
| ≤ 100 nM | Cc1ccc(N2C(=O)[C@@H](C)N(C3CCCCC3)c3nc(Nc4ccc5[nH]ncc5c4)ncc32)cc1 [Example 22, (7R)-8-cyclohexyl-2-(1H-indazol-5-ylamino)-7-methyl-5-(4-methylphenyl)-7,8-dihydropteridin-6(5H)-one] |
| ≤ 100 nM | COc1cc(N2C(=O)[C@@H](C)N(C3CCCCC3)c3nc(Nc4ccc5[nH]ncc5c4)ncc32)cc(OC)c1OC [Example 38, (7R)-8-cyclohexyl-2-(1H-indazol-5-ylamino)-7-methyl-5-(3,4,5-trimethoxyphenyl)-7,8-dihydropteridin-6(5H)-one] |
| ≤ 100 nM | C[C@@H]1C(=O)N(c2cccc(C#N)c2)c2cnc(Nc3ccc4c(c3)CS(=O)(=O)N4)nc2N1C1CCCCC1 [compound 174, 3-[(7R)-8-cyclohexyl-2-[(2,2-dioxido-1,3-dihydro-2,1-benzothiazol-5-yl)amino]-7-methyl-6-oxo-7,8-dihydropteridin-5(6H)-yl]benzonitrile] |
| ≤ 100 nM | C[C@@H]1C(=O)N(c2cccnc2)c2cnc(Nc3ccc4[nH]ncc4c3F)nc2N1C1CCCCC1 [compound 122, (7R)-8-cyclohexyl-2-[(4-fluoro-1H-indazol-5-yl)amino]-7-methyl-5-(pyridin-3-yl)-7,8-dihydropteridin-6(5H)-one] |
| ≤ 100 nM | COc1ccc(N2C(=O)[C@@H](C)N(C3CCCCC3)c3nc(Nc4ccc(C(=O)O)cc4)ncc32)cc1OC [compound 148, 4-{[(7R)-8-cyclohexyl-5-(3,4-dimethoxyphenyl)-7-methyl-6-oxo-5,6,7,8-tetrahydropteridin-2-yl]amino}benzoic acid] |
| ≤ 100 nM | C[C@@H]1C(=O)N(c2cccnc2)c2cnc(Nc3cc(F)c4[nH]ncc4c3)nc2N1[C@H]1CC[C@@H](C)CC1 [compound 240, (7R)-2-[(7-fluoro-1H-indazol-5-yl)amino]-7-methyl-8-(cis-4-methylcyclohexyl)-5-(pyridin-3-yl)-7,8-dihydropteridin-6(5H)-one] |
| ≤ 100 nM | CCOc1ccc(N2C(=O)[C@@H](C)N(C3CCOCC3)c3nc(Nc4cc(F)c5[nH]ncc5c4)ncc32)cc1C#N [compound 195, 2-Ethoxy-5-[(7R)-2-[(7-fluoro-1H-indazol-5-yl)amino]-7-methyl-6-oxo-8-(tetrahydro-2H-pyran-4-yl)-7,8-dihydropteridin-5(6H)-yl]benzonitrile] |
| ≤ 100 nM | CCOc1ccc(N2C(=O)[C@@H](C)N(C3CCOCC3)c3nc(Nc4cnc5[nH]ncc5c4)ncc32)cc1C#N [compound 201, 2-Ethoxy-5-[(7R)-7-methyl-6-oxo-2-(1H-pyrazolo[3,4-b]pyridin-5-ylamino)-8-(tetrahydro-2H-pyran-4-yl)-7,8-dihydropteridin-5(6H)-yl]benzonitrile] |
| ≤ 100 nM | CC[C@@H]1C(=O)N(c2ccc(OC)c(OC)c2)c2cnc(Nc3cc(F)c4[nH]ncc4c3)nc2N1C1CCCCC1 [compound 289, (7R)-8-cyclohexyl-5-(3,4-dimethoxyphenyl)-7-ethyl-2-[(7-fluoro-1H-indazol-5-yl)amino]-7,8-dihydropteridin-6(5H)-one] |
| ≤ 100 nM | C[C@@H]1C(=O)N(c2cccc(C#N)c2)c2cnc(Nc3ccc4[nH]ncc4c3F)nc2N1C1CCOCC1 [compound 185, 3-[(7R)-2-[(4-fluoro-1H-indazol-5-yl)amino]-7-methyl-6-oxo-8-(tetrahydro-2H-pyran-4-yl)-7,8-dihydropteridin-5(6H)-yl]benzonitrile] |
| ≤ 100 nM | C[C@@H]1C(=O)N(c2ccccc2)c2cnc(Nc3ccc4[nH]ncc4c3)nc2N1CC1CCOCC1 [Example 74, (7R)-2-(1H-indazol-5-ylamino)-7-methyl-5-phenyl-8-(tetrahydro-2H-pyran-4-ylmethyl)-7,8-dihydropteridin-6(5H)-one] |
